The text below walks through data of patent US20040192665A1 (priority 2002, published 2004).

In data set [1] the test system is DU-145 human prostate tumor cells. Put plainly: DU-145 xenograft tumor growth in nude mice. It is filed as in vivo, nude mice (nu/nu). The conditions noted are these: experiment 2; I.P. 8 mg/kg once per week; after 5 treatments. The method, then:
Cage were cleaned and bedding changed once weekly. Irradiated corn cob bedding was used. Animals were observed daily and clinical signs were noted.
Morbidity and mortality were monitored daily.
The dosage level was determined by exact body weight.
Five mice per treatment group were tested.
Animals were treated once per week for 5 weeks.

For data set [2] the following is noted: experiment 2, I.P. 8 mg/kg once per week.

As to `COc1cccc2c1C(=O)c1c(O)c3c(c(O)c1C2=O)C[C@@](O)(C(=O)CO)C[C@@H]3O[C@H]1C[C@H](N)[C@H](O)[C@H](C)O1` [doxorubicin], the “tumor volumes less compared to placebo-control tumors” value in data set [1] was 4.4 fold. Also, the animals survived in data set [2] (after 5 treatments) is 3/6. For the same molecule, the “average group weight in the surviving animals, down by” value in data set [2] (after the 5th treatment) is listed as 27%.
